The results in this text go back to patent US9624201B2, “Inhibitors of bruton's tyrosine kinase” (Hoffmann-La Roche Inc., priority 2013, dated 2017).

Bruton's Tyrosine Kinase (inactivated state), sequence (Q06187 whole entry): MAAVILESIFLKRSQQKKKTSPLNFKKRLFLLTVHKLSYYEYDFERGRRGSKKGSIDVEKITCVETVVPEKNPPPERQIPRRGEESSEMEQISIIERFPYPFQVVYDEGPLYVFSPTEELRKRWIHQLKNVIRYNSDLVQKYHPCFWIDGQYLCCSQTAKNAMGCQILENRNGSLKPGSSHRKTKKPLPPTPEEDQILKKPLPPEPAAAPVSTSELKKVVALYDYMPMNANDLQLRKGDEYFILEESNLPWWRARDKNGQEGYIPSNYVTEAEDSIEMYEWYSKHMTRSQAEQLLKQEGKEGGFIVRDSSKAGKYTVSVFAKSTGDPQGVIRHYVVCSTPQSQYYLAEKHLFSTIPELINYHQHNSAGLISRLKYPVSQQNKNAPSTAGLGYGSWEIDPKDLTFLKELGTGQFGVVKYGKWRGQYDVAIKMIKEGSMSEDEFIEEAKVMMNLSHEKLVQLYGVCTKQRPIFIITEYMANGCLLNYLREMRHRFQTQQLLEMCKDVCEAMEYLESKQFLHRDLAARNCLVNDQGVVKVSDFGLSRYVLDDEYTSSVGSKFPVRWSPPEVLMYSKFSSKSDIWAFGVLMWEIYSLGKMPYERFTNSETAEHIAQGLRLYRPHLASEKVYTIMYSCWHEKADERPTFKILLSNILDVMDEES

This test addresses Bruton's Tyrosine Kinase (inactivated state) (Homo sapiens (Human), UniProt Q06187). The experiment in a line: Bruton's Tyrosine Kinase (BTK) Inhibition TR-FRET (Time Resolved FRET) competition assay. The settings on record: inactivated state of BTK; Kinase Tracer 178; incubated 18-24 h at 14° C. Format: binding. The method, then:
This BTK competition assay measures compound potency (IC50) for the inactivated state of Bruton's Tyrosine Kinase using FRET (Forster/Flouresence Resonance Energy Transfer) technology. The BTK-Eu complex was incubated on ice one hour prior to use at a starting concentration of 50 nM BTK-Bioease™: 10 nM Eu-streptavidin (Perkin-Elmer Catalog# AD0062). The assay buffer consisted of 20 mM HEPES (pH 7.15), 0.1 mM DTT, 10 mM MgCl2, 0.5 mg/ml BSA with 3% Kinase Stabilizer (Fremont Biosolutions, Catalog # STB-K02). After 1 h, the reaction mixture from above was diluted 10 fold in assay buffer to make 5 nM BTK: 1 nM Eu-Streptavidin complex (donor fluorophore). 18 μl of a mixture of 0.11 nM BTK-Eu and 0.11 nM Kinase Tracer 178 (Invitrogen, Catalog # PV5593,) with BTK-Eu alone as no negative control, was then dispensed into 384-well flat bottom plates (Greiner, 784076). Compounds to be tested in assay were prepared as 10× concentrations and serial dilution in half-log increments was performed in DMSO so as to generate 10 point curves. To initiate the FRET reaction, compounds prepared as 10× stock in DMSO was added to the plates and the plates were incubated 18-24 h at 14° C.
After the incubation the plates were read on a BMG Pherastar Fluorescent plate reader (or equivalent) and used to measure the emission energy from the europium donor fluorophore (620 nm emission) and the FRET (665 nm emission). The negative control well values were averaged to obtain the mean minimum. The positive “no inhibitor” control wells were averaged to obtain the mean maximum. Percent of maximal FRET was calculated using following equation: % max FRET=100×[(FSRcmpd−FSRmean min)/(FSRmean max−FSRmean min)] where FSR=FRET Signal ratio. % Max FRET curves were plotted in Activity Base (Excel) and the IC50(%), hill slope, z′ and % CV were determined. The mean IC50 and standard deviation will be derived from duplicate curves (singlet inhibition curves from two independent dilutions) using Microsoft Excel.
What is called IC50 is the concentration that gives 50% inhibition. Read a high IC50 as weaker potency. On to `Cc1cc(Oc2cccc(F)c2F)ccc1-n1ncc(C(=O)c2cc3c(Br)cccc3[nH]2)c1N` [Compound 1, {5-Amino-1-[4-(2,3-difluoro-phenoxy)-2-methyl-phenyl]-1H-pyrazol-4-yl}-(4-bromo-1H-indol-2-yl)-methanone], for which the IC50 turned out to be 61.5 nM. The result for `Cc1cc(Oc2cccc(F)c2F)ccc1-n1ncc(C(=O)c2cc3c(-c4ccccc4)cccc3[nH]2)c1N` [Compound 2, {5-Amino-1-[4-(2,3-difluoro-phenoxy)-2-methyl-phenyl]-1H-pyrazol-4-yl}-(4-phenyl-1H-indol-2-yl)-methanone] reads 85.1 nM; that for `Cc1cc(Oc2cccc(F)c2F)ccc1-n1ncc(C(=O)c2cc3c(-c4ccsc4)cccc3[nH]2)c1N` [Compound 3, {5-Amino-1-[4-(2,3-difluoro-phenoxy)-2-methyl-phenyl]-1H-pyrazol-4-yl}-(4-thiophen-3-yl-1H-indol-2-yl)-methanone], 106 nM.

`Cc1cc(Oc2cccc(F)c2F)ccc1-n1ncc(C(=O)c2cc3c(-n4cccn4)cccc3[nH]2)c1N` [Compound 4, {5-Amino-1-[4-(2,3-difluoro-phenoxy)-2-methyl-phenyl]-1H-pyrazol-4-yl}-(4-pyrazol-1-yl-1H-indol-2-yl)-methanone] had an IC50 of 20.8 nM. With `Cc1cc(Oc2cccc(F)c2F)ccc1-n1ncc(C(=O)c2cc3c(-c4cccs4)cccc3[nH]2)c1N` [Compound 5, {5-Amino-1-[4-(2,3-difluoro-phenoxy)-2-methyl-phenyl]-1H-pyrazol-4-yl}-(4-thiophen-2-yl-1H-indol-2-yl)-methanone], the IC50 stood at 214 nM.

Turning to `Cc1cc(Oc2cccc(F)c2F)ccc1-n1ncc(C(=O)c2cc3c(C(=O)N4CCOCC4)cccc3[nH]2)c1N` [Compound 6, {5-Amino-1-[4-(2,3-difluoro-phenoxy)-2-methyl-phenyl]-1H-pyrazol-4-yl}-[4-(morpholine-4-carbonyl)-1H-indol-2-yl]-methanone], the IC50 is 11.9 nM.

In turn, `Cc1cc(Oc2cccc(F)c2F)ccc1-n1ncc(C(=O)c2cc3c(-c4ccccn4)cccc3[nH]2)c1N` [Compound 8, {5-Amino-1-[4-(2,3-difluoro-phenoxy)-2-methyl-phenyl]-1H-pyrazol-4-yl}-(4-pyridin-2-yl-1H-indol-2-yl)-methanone] yielded an IC50 of 6.15 nM.

`Cc1cc(Oc2cccc(F)c2F)ccc1-n1ncc(C(=O)c2cc3c(Cc4ccccc4)cccc3[nH]2)c1N` [Compound 9, {5-Amino-1-[4-(2,3-difluoro-phenoxy)-2-methyl-phenyl]-1H-pyrazol-4-yl}-(4-benzyl-1H-indol-2-yl)-methanone] gave an IC50 of 33.1 nM.

Take `Cc1cc(Oc2cccc(F)c2F)ccc1-n1ncc(C(=O)c2cc3c(-c4cn[nH]c4)cccc3[nH]2)c1N` [Compound 10, {5-Amino-1-[4-(2,3-difluoro-phenoxy)-2-methyl-phenyl]-1H-pyrazol-4-yl}-[4-(1H-pyrazol-4-yl)-1H-indol-2-yl]-methanone]: the IC50 was 4.21 nM.

In the case of `Cc1cc(Oc2cccc(F)c2F)ccc1-n1ncc(C(=O)c2cc3c(-c4cccc(C#N)c4)cccc3[nH]2)c1N` [Compound 11, 3-(2-{5-Amino-1-[4-(2,3-difluoro-phenoxy)-2-methyl-phenyl]-1H-pyrazole-4-carbonyl}-1H-indol-4-yl)-benzonitrile], the IC50 came to 59.1 nM.

As for `Cc1cc(Oc2cccc(F)c2F)ccc1-n1ncc(C(=O)c2cc3c(-c4cccc(Cl)c4)cccc3[nH]2)c1N` [Compound 12, {5-Amino-1-[4-(2,3-difluoro-phenoxy)-2-methyl-phenyl]-1H-pyrazol-4-yl}-[4-(3-chloro-phenyl)-1H-indol-2-yl]-methanone], the IC50 came out at 201 nM.

In turn, `Cc1cc(Oc2cccc(F)c2F)ccc1-n1ncc(C(=O)c2cc3c(Cc4cccc(C#N)c4)cccc3[nH]2)c1N` [Compound 13, 3-(2-{5-Amino-1-[4-(2,3-difluoro-phenoxy)-2-methyl-phenyl]-1H-pyrazole-4-carbonyl}-1H-indol-4-ylmethyl)-benzonitrile] showed an IC50 of 29.5 nM. For `Cc1cc(Oc2cccc(C#N)c2)ccc1-n1ncc(C(=O)c2cc3c(-c4cn[nH]c4)cccc3[nH]2)c1N` [Compound 14, 3-(4-{5-Amino-4-[4-(1H-pyrazol-4-yl)-1H-indole-2-carbonyl]-pyrazol-1-yl}-3-methyl-phenoxy)-benzonitrile] the value was 8.38 nM. For `Cc1cc(Oc2cccc(C#N)c2)ccc1-n1ncc(C(=O)c2cc3c(C(=O)N4CCOCC4)cccc3[nH]2)c1N` [Compound 15, 3-(4-{5-Amino-4-[4-(morpholine-4-carbonyl)-1H-indole-2-carbonyl]-pyrazol-1-yl}-3-methyl-phenoxy)-benzonitrile] the value was 93.6 nM. For `Cc1cc(Oc2cccc(C#N)c2)ccc1-n1ncc(C(=O)c2cc3c(C(=O)N4CCN(C)CC4)cccc3[nH]2)c1N` [Compound 16, 3-(4-{5-Amino-4-[4-(4-methyl-piperazine-1-carbonyl)-1H-indole-2-carbonyl]-pyrazol-1-yl}-3-methyl-phenoxy)-benzonitrile] the value was 39.1 nM; for `COc1cccc(Cc2cccc3[nH]c(C(=O)c4cnn(-c5ccc(Oc6cccc(C#N)c6)cc5C)c4N)cc23)c1` [Compound 17, 3-(4-{5-Amino-4-[4-(3-methoxy-benzyl)-1H-indole-2-carbonyl]-pyrazol-1-yl}-3-methyl-phenoxy)-benzonitrile], 21.1 nM. With `Cc1cc(Oc2cccc(C#N)c2)ccc1-n1ncc(C(=O)c2cc3c(CC#N)cccc3[nH]2)c1N` [Compound 20, 3-{4-[5-Amino-4-(4-cyanomethyl-1H-indole-2-carbonyl)-pyrazol-1-yl]-3-methyl-phenoxy}-benzonitrile], the IC50 was 8.45 nM. For `CNC(=O)c1cccc2[nH]c(C(=O)c3cnn(-c4ccc(Oc5cccc(C#N)c5)cc4C)c3N)cc12` [Compound 21, 2-{5-Amino-1-[4-(3-cyano-phenoxy)-2-methyl-phenyl]-1H-pyrazole-4-carbonyl}-1H-indole-4-carboxylic acid methylamide] the value was 13 nM; for “{5-Amino-1-[4-(2,3-difluoro-phenoxy)-2-methyl-phenyl]-1H-pyrazol-4-yl}-[4-(1-methyl-1H-pyrazol-4-yl)-1H-indol-2-yl]-methanone [Compound 7]”, 65.3 nM.
